The results in this text go back to paper PMC6114082, “Synthesis of aminophenylhydroxamate and aminobenzylhydroxamate derivatives and in vitro screening for antiparasitic and histone deacetylase inhibitory activity” (International Journal for Parasitology: Drugs and Drug …, 2018).

For experiment [1], the system named is L. braziliensis MHOM/BR/75/M209. The experiment can be described thus: Antileishmanial activity, L. braziliensis promastigotes (luciferase expressing strain). Format: cell-based, Leishmania braziliensis. The note with it: Leishmania braziliensis. The method, then:
(§1) The antitrypanosomatid activity of the compounds was ascertained as follows. Leishmania parasites were cultured at 26 °C in SDM-79 medium supplemented with 10% fetal calf serum (FCS), and the antileishmanial activity was determined according to a previously published protocol for LUC-expressing and wild-type Leishmania ([Sereno et al., 2001], [Abbassi et al., 2008]). Trypanosoma brucei gambiense were grown at 26 °C in Cunningham's medium supplemented with 10% FCS, 2 mM GlutaMAX-1 (Gibco, USA), 100 U/ml penicillin, 100 μg/ml streptomycin and […] bovine hemin. The epimastigote form of Trypanosoma cruzi (strain Y cl7 scl2, lineage Tc2) (kindly provided by Philippe Truc and Christian Barnabé, UMR 177 IRD-CIRAD InterTryp, Montpellier, France) were grown at 26 °C in liver infusion tryptose (LIT) medium, supplemented with 10% FCS, 2 mM GlutaMAX™-I, 100 U/ml penicillin, 100 μg/ml streptomycin and bovine hemin (20 mg/l) (Gibco). The antitrypanosomatids activity was determined using a protocol that was initialy set up for wild-type Leishmania ([Abbassi et al., 2008]). To assess the drug activity on Toxoplasma gondii, confluent human foreskin fibroblast (HFF) monolayers were infected with YFP-type I Rh kindly provided by B. Striepen, see ([Striepen et al., 1998]) or Tomato-type II Pru kindly provided by N. Blanchard (Toulouse), expressing parasites at 5 × 10^4 per well, which were then centrifuged for 30 s at 1300 rpm and incubated for 30 min in a water bath at 37 °C to allow invasion. The wells were then washed three times with PBS to eliminate extracellular parasites, and the drugs were added at various concentrations ranging from 1 to 50 μM. After incubation for 24 h at 37 °C in a humidified atmosphere containing 5% CO2, the cells were fixed in 2.5% methanol-free formaldehyde (Tebu-bio)/PBS for 30 min at room temperature. Nuclei were stained with Hoechst 33258 (2 μg/ml, Molecular Probes) for 20 min and then washed three times with water for 10 min each time. The number of infected cells, i.e., cells harboring a parasitophorous vacuole, and the number of parasites per vacuole were determined using an Olympus ScanR microscope ( × 20 objective) and ScanR software. The parasitic index in % compared to the control was calculated as follows: (PI=((number of parasite/100 cells in treated wells) x (% of infected macrophage in treated well)/(number of parasite/100 cells in untreated wells) x (% of infected macrophage in untreated wells))*100).

Experiment [2] has as its target T1, HDAC 6 (Homo sapiens, UniProt Q9UBN7).
T1 construct: purchased Active Motif, Belgium
T1 sequence (Q9UBN7 1-1215): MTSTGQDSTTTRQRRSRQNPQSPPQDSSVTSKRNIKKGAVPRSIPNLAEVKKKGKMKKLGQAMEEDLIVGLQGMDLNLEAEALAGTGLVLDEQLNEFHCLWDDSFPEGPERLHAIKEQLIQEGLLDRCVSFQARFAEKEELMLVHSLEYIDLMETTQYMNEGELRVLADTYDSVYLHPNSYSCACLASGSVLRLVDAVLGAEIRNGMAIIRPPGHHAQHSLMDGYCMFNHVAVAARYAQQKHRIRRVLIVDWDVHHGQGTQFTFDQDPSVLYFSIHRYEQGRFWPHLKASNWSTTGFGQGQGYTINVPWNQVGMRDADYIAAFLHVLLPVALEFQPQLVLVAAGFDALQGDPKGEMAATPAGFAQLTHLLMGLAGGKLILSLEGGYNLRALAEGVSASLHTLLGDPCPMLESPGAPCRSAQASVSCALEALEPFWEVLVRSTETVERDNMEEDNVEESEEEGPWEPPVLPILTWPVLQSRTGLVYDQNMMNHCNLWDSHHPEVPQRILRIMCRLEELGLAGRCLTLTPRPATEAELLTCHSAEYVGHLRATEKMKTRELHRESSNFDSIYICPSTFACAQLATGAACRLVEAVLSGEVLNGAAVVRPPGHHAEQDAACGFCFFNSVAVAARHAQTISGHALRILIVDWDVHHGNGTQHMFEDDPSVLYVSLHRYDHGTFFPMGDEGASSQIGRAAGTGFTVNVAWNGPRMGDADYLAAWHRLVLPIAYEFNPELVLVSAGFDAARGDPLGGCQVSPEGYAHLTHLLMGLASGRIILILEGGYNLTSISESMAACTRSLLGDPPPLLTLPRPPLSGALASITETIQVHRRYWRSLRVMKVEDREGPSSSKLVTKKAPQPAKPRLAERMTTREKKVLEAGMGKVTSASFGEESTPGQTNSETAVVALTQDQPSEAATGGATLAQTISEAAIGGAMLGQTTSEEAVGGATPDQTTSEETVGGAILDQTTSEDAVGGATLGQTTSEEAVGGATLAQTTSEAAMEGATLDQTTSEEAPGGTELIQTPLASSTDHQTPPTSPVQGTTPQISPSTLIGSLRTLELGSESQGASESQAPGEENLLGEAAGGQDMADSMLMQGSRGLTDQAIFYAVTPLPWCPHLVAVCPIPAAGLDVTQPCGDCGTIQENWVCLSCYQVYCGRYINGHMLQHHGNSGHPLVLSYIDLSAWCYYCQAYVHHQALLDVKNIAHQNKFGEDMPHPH
Description: Fluorometric HDAC assay, recombinant HDAC6. Format: biochemical. The method, then:
(§2) The HDACi effect against HeLa nuclear extracts and recombinant proteins were measured using a fluorometric HDAC assay kit (Active Motif, Belgium) according to the manufacturer's instructions. […] A negative control containing trichostatin A at a final concentration of 2 μM was analyzed for each independent experiment.

In experiment [3] the target is T2, HDAC 1 (Homo sapiens, UniProt Q13547).
T2 construct: purchased Active Motif, Belgium
T2 sequence (Q13547 whole entry): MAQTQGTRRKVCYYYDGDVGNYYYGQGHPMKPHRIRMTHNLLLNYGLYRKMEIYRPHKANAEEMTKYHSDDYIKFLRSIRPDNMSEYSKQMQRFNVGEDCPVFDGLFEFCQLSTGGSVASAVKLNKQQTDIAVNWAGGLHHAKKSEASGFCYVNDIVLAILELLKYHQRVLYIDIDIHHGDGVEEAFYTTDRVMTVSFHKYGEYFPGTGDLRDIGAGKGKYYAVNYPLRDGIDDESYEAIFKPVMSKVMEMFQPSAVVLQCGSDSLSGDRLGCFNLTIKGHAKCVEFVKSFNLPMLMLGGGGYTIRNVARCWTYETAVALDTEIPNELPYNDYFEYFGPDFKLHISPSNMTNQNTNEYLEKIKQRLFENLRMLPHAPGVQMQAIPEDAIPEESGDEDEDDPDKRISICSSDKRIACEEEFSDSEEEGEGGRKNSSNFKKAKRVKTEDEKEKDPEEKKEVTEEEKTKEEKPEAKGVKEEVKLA
The experiment can be described thus: Fluorometric HDAC assay, recombinant HDAC1. Format: biochemical. On the procedure:
The HDACi effect against HeLa nuclear extracts and recombinant proteins were measured using a fluorometric HDAC assay kit (Active Motif, Belgium) according to the manufacturer's instructions. Briefly, 30 μL of HeLa nuclear extract (Active Motif, Belgium) or various HDAC recombinant proteins (Active Motif, Belgium) was mixed with 5 μL of a 10 × compound and 10 μL of assay buffer. A negative control containing trichostatin A at a final concentration of 2 μM was analyzed for each independent experiment. A fluorogenic substrate (10 μL) was added, and the reaction was allowed to proceed for 30 min at room temperature and then stopped by the addition of a developer containing trichostatin A. The fluorescence was monitored after 30 min at excitation and emission wavelengths of 360 and 460 nm, respectively.

The test system of experiment [4] is L. infantum MHOM/MA/67/ITMAP-264. Description: Antileishmanial activity, L. infantum promastigotes (luciferase expressing strain). Format: cell-based, Leishmania infantum. On the procedure: as §1
Experiment [5] deals with HeLa nuclear extract (HDAC 1, 2, 6, and 8 predominant). The experiment can be described thus: Fluorometric HDAC assay, HeLa nuclear extract. Format: biochemical. On the procedure: as §2

A value given as a limit tells only on which side of the number the result lay.

For orientation: IC50 means the midpoint of a concentration-inhibition curve.

In the case of `COc1cccc(CC(=O)Nc2ccc(C(=O)NO)cc2)c1` [Compound 363, N-hydroxy-4-[2-(3-methoxyphenyl)acetamido]benzamide], the 50% inhibitory concentration (IC50) was above 60 µM in experiment [1]; 45 ± 15 nM in experiment [2] (recombinant protein, read-out: rHDAC 6 IC50); 257 ± 50 nM in experiment [3] (recombinant protein, read-out: rHDAC 1 IC50); above 60 µM in experiment [4] (Leishmania infantum, promastigotes, luciferase expressing strain); 85 ± 35 nM in experiment [5] (HeLa nuclear extract, read-out: HDACi HeLa IC50). For the same molecule, in experiment [2] (363 as compared to SAHA), the “Fold, HDAC 6” value was found to be 34.9. Further, the “Fold, HDAC 1” value in experiment [3] (363 as compared to SAHA) came out at 2.43. The “IS^b selectivity index for L. infantum” value in experiment [4] (IC50 THP-1 / IC50 Leishmania infantum (footnote)) is listed as below 1. The “HDACi effect, inhibition at single concentration” value in experiment [5] (1.0 μM, screen on HeLa nuclear extract and recombinant HDAC1, 3, 6, 8 (Fig. 2A)) stood at 90%.
